Reference: PubChem BioAssay (NCI)
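These data come from cells grown in 96-well plates and exposed to compound for 48 hours at five concentrations. Abbreviation: GI50, concentration required for 50% inhibition of growth. TGI is the concentration that stops growth completely.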

Columns and labels:
Assay in all cases: DTP human tumour cell line panel, 48 h
[1] = test system: ACHN renal
[2] = test system: IGROV1 ovarian
[3] = test system: NCI-H226 lung
[4] = test system: NCI-H23 lung
[5] = test system: NCI-H460 lung
[6] = test system: SN12C renal
[7] = test system: SNB-19 CNS
[8] = test system: U251 CNS
[9] = test system: UACC-62 melanoma
[10] = test system: DU-145 prostate

For `O=C1CCC2CCOc3ccc(O)c1c32` (centres undefined), the TGI [1] was greater than 100 µM, the TGI [2] was greater than 100 µM and the TGI [3] was greater than 100 µM. For the same compound, the TGI [4] was greater than 100 µM, the TGI [5] was greater than 100 µM and the TGI [6] was greater than 100 µM. It also gave a TGI [7] greater than 100 µM, a TGI [8] greater than 100 µM and a TGI [9] greater than 100 µM.

In the case of `CN1c2ccccc2C(C)(C)C12CC(c1ccc(Cl)c(S(=O)(=O)N3CCCC3)c1)=NO2` (centres undefined), the GI50 [1] was greater than 100 µM, the TGI [1] was greater than 100 µM and the GI50 [10] was greater than 100 µM. For the same compound, the TGI [10] was greater than 100 µM, the GI50 [2] was greater than 100 µM and the TGI [2] was greater than 100 µM. It also gave a GI50 [3] greater than 100 µM, a TGI [3] greater than 100 µM and a GI50 [4] greater than 100 µM. The TGI [4] was greater than 100 µM, the GI50 [5] was 0.375 µM and the TGI [5] was greater than 100 µM. For the same compound, the GI50 [6] was greater than 100 µM, the TGI [6] was greater than 100 µM and the GI50 [7] was greater than 100 µM. For the same compound, the TGI [7] was greater than 100 µM, the GI50 [8] was 0.531 µM and the TGI [8] was greater than 100 µM.

Work on `COc1cc2c3c(n(C)c(=O)c2cc1OC)-c1cc2c(cc1/C3=C\[C@@H](N)CCCCN)OCO2` yielded a GI50 [1] of 2.46 µM, a TGI [1] greater than 41.4 µM and a GI50 [10] of 0.717 µM. For the same compound, the TGI [10] was 37 µM, the GI50 [2] was 2.24 µM and the TGI [2] was greater than 100 µM. It also gave a GI50 [3] of 1.48 µM, a TGI [3] of 18.4 µM and a GI50 [4] of 1.29 µM. The TGI [4] was 20.5 µM, the GI50 [5] was 0.707 µM and the TGI [5] was greater than 82.9 µM. It also gave a GI50 [6] of 0.46 µM, a TGI [6] of 6.95 µM and a GI50 [7] of 1.46 µM. The TGI [7] was greater than 100 µM, the GI50 [8] was less than 0.0209 µM and the TGI [8] was 7.41 µM. The GI50 [9] was 0.467 µM and the TGI [9] was 7.38 µM.

Compound `CN(C)CCCC(=O)Nc1ccc(Cn2nnc3c2C(=O)c2nnn(Cc4ccc(NC(=O)CCCN(C)C)cc4)c2C3=O)cc1` has a GI50 [1] of 38.9 µM, a TGI [1] greater than 100 µM and a GI50 [10] of 3.48 µM. The TGI [10] was 10.6 µM, the GI50 [2] was 2.32 µM and the TGI [2] was 5.74 µM. For the same compound, the GI50 [3] was 16.5 µM, the TGI [3] was 42.2 µM and the GI50 [4] was 2.13 µM. The TGI [4] was 5.01 µM, the GI50 [5] was 2.82 µM and the TGI [5] was 10.8 µM. For the same compound, the GI50 [6] was 1.96 µM, the TGI [6] was 4 µM and the GI50 [8] was 2.69 µM. The TGI [8] was 6.62 µM.

With `N#Cc1nc(Nc2ccc([N+](=O)[O-])cc2)sc1N` the TGI [1] was 50.9 µM, the TGI [2] was greater than 100 µM and the TGI [3] was greater than 86.3 µM. For the same compound, the TGI [4] was 20.5 µM, the TGI [5] was greater than 100 µM and the TGI [6] was greater than 74.6 µM. For the same compound, the TGI [7] was greater than 95.1 µM, the TGI [8] was greater than 48.5 µM and the TGI [9] was 50.8 µM.

In the case of `Cc1ccc([Se][Se]c2ccc(C)cc2)cc1`, the TGI [1] was greater than 100 µM, the TGI [2] was greater than 100 µM and the TGI [3] was greater than 100 µM. It also gave a TGI [4] greater than 100 µM, a TGI [5] greater than 100 µM and a TGI [6] greater than 100 µM. For the same compound, the TGI [7] was greater than 100 µM, the TGI [8] was 17.5 µM and the TGI [9] was 31.7 µM.

In the case of `COc1cccc2c(Nc3ccc(C(=O)NCCN(C)C)cc3)cc(-c3ccccc3)nc12`, the GI50 [1] was 17.6 µM, the TGI [1] was 37.9 µM and the GI50 [10] was 16.4 µM. It also gave a TGI [10] of 33 µM, a GI50 [2] of 10.8 µM and a TGI [2] of 25.6 µM. It also gave a GI50 [3] of 19.3 µM, a TGI [3] of 40 µM and a GI50 [4] of 20.3 µM. It also gave a TGI [4] of 45.6 µM, a GI50 [6] of 16.1 µM and a TGI [6] of 36.4 µM. It also gave a GI50 [8] of 18.8 µM, a TGI [8] of 38.3 µM and a GI50 [9] of 18.2 µM. The TGI [9] was 32.5 µM.

In the case of `C1C[OH+]CC[OH+]CC[OH+]CC[OH+]CC[OH+]CC[OH+]1.[Cl-].[Ta+5]`, the GI50 [1] was greater than 100 µM, the TGI [1] was greater than 100 µM and the GI50 [2] was greater than 100 µM. The TGI [2] was greater than 100 µM, the GI50 [3] was 13.3 µM and the TGI [3] was 30.5 µM. It also gave a GI50 [4] greater than 100 µM, a TGI [4] greater than 100 µM and a GI50 [5] greater than 100 µM. For the same compound, the TGI [5] was greater than 100 µM, the GI50 [6] was greater than 100 µM and the TGI [6] was greater than 100 µM. For the same compound, the GI50 [7] was 24.3 µM, the TGI [7] was greater than 100 µM and the GI50 [8] was greater than 100 µM. It also gave a TGI [8] greater than 100 µM, a GI50 [9] greater than 100 µM and a TGI [9] greater than 100 µM.

Work on `CC1=C(c2cc(C(=O)Nc3cccc(C(F)(F)F)c3)nc(NC#N)n2)Sc2ccccc2N1` yielded a TGI [1] greater than 100 µM, a TGI [2] greater than 100 µM and a TGI [3] greater than 100 µM. For the same compound, the TGI [4] was greater than 100 µM, the TGI [5] was greater than 100 µM and the TGI [6] was greater than 100 µM. For the same compound, the TGI [7] was greater than 100 µM, the TGI [8] was greater than 100 µM and the TGI [9] was greater than 100 µM.

With `O=C(/C=C/c1ccc(Cl)cc1)c1ccncc1` the TGI [1] was greater than 100 µM, the TGI [2] was greater than 100 µM and the TGI [3] was greater than 100 µM. It also gave a TGI [4] greater than 100 µM, a TGI [5] greater than 100 µM and a TGI [6] greater than 100 µM. It also gave a TGI [7] greater than 100 µM, a TGI [8] greater than 100 µM and a TGI [9] greater than 100 µM.

In the case of `O=C1CCC(=O)C12CCc1cccc(O)c12`, the TGI [1] was greater than 100 µM, the TGI [2] was greater than 100 µM and the TGI [4] was greater than 100 µM. For the same compound, the TGI [5] was greater than 100 µM, the TGI [6] was greater than 100 µM and the TGI [8] was greater than 100 µM. It also gave a TGI [9] greater than 100 µM.

For `COC(=O)[C@H](Cc1ccccc1)NC(=O)[C@@H](OC)[C@@H]1Cc2cc3cc(OC4CC(OC5CC(O)C(O)C(C)O5)C(O)C(C)O4)c(C)c(O)c3c(O)c2C(=O)[C@H]1OC1CC(OC2CC(OC3CC(C)(O)C(O)C(C)O3)C(O)C(C)O2)C(O)C(C)O1` (some centres undefined), the GI50 [10] was 0.0286 µM, the TGI [10] was greater than 14.3 µM and the GI50 [2] was 0.00902 µM. The TGI [2] was greater than 14.3 µM, the GI50 [3] was 0.018 µM and the TGI [3] was 0.0741 µM. It also gave a GI50 [4] of 0.0106 µM, a TGI [4] of 0.0821 µM and a GI50 [5] of 0.0197 µM. For the same compound, the TGI [5] was greater than 14.3 µM, the GI50 [6] was 0.00991 µM and the TGI [6] was greater than 14.3 µM. The GI50 [7] was 0.0173 µM, the TGI [7] was greater than 14.3 µM and the GI50 [8] was 0.0257 µM. It also gave a TGI [8] greater than 14.3 µM, a GI50 [9] of 0.00473 µM and a TGI [9] of 0.0209 µM.

Work on `Cc1nn(C)c(=O)c2nn(-c3ccccc3)c(C)c12` yielded a TGI [1] greater than 100 µM, a TGI [2] greater than 100 µM and a TGI [3] greater than 100 µM. The TGI [4] was greater than 100 µM, the TGI [5] was greater than 100 µM and the TGI [6] was greater than 100 µM. For the same compound, the TGI [7] was greater than 100 µM, the TGI [8] was greater than 100 µM and the TGI [9] was greater than 100 µM.

Work on `O=C1CC(c2c[nH]c3ccccc23)C(=O)N1c1ccccc1` (centres undefined) yielded a TGI [1] greater than 100 µM, a TGI [2] greater than 100 µM and a TGI [3] greater than 100 µM. It also gave a TGI [4] greater than 100 µM, a TGI [5] greater than 100 µM and a TGI [8] greater than 100 µM. The TGI [9] was greater than 100 µM.

Work on `O=C(O/N=C1/CCCC/C1=C\c1ccccc1)c1ccc(Cl)cc1` yielded a TGI [1] greater than 100 µM, a TGI [2] greater than 100 µM and a TGI [3] greater than 100 µM. For the same compound, the TGI [4] was greater than 100 µM, the TGI [5] was greater than 100 µM and the TGI [6] was greater than 100 µM. For the same compound, the TGI [7] was greater than 100 µM, the TGI [8] was greater than 100 µM and the TGI [9] was greater than 100 µM.

Compound `C=CCNC(=S)OCCCCCCCCCC` has a TGI [1] of 32.7 µM, a TGI [2] of 35.7 µM and a TGI [4] of 37.8 µM. For the same compound, the TGI [5] was 33 µM, the TGI [6] was 31.7 µM and the TGI [7] was 83.9 µM. For the same compound, the TGI [8] was 30.8 µM and the TGI [9] was 30.2 µM.

In the case of `CC(=O)OC1=C2C(CC3C4CC=C5CC(OC(C)=O)CCC5(C)C4CCC23C)C2C(=O)N(Cc3ccccc3)C(=O)C2C1` (centres undefined), the GI50 [1] was 9.65 µM, the TGI [1] was greater than 100 µM and the GI50 [10] was 32.8 µM. It also gave a TGI [10] greater than 100 µM, a GI50 [2] of 6.85 µM and a TGI [2] greater than 100 µM. It also gave a GI50 [3] of 8.16 µM, a TGI [3] greater than 100 µM and a GI50 [4] of 16.6 µM. For the same compound, the TGI [4] was 74 µM, the GI50 [5] was 3.73 µM and the TGI [5] was 31.1 µM. The GI50 [6] was 10.9 µM, the TGI [6] was greater than 100 µM and the GI50 [7] was 9.22 µM. It also gave a TGI [7] greater than 100 µM, a GI50 [9] of 4.42 µM and a TGI [9] of 34.3 µM.
